The structures appear in SMILES notation. Like-named read-outs stand apart in the source and are kept apart here.

Assay [1] relates to NCI-H23. Kind of assay: Cellular viability assay, CellTiter-Glo, NCI-H23. The class given is cell-based. The conditions noted are these: Homo sapiens, Table 6 viability assay (method: reduced serum, 1% FBS). Here is the method:
(§1) Cellular Viability of a Human Tumor Cell Lines
(§2) Human cancer cell lines NCI-H23, K562, NCI-H929, and MV-4-11 were cultured in media supplemented with 10% fetal bovine serum (FBS). To evaluate compound effect on cellular proliferation, cells were plated at 1,000 cells/well in 96-well tissue culture plates in a total volume of 90 uL medium supplemented with 10% FBS (Sigma, Saint Louis, Mo.). 24 hours later, 10 uL of compound (in a 2-fold serial dilution) is added to the cells for a top concentration of 50 uM and a final DMSO concentration <1%. After 72 hours, cell number was measured using the CellTiter-Glo Luminescent assay according to manufacturer's recommendations (Promega, Madison, Wis.). A viability assay in reduced serum was also conducted. Cells were plated at 5,000 cells/well in 96-well plates in a total volume of 100 uL medium supplemented with 10% FBS (Sigma, Saint Louis, Mo.). 24 hours later, the medium was replaced with 90 uL medium containing 1% FBS and the assay conducted as described. EC50 values were determined by plotting growth against compound concentration in a 4-parameter logisitic model in XLFit.
On the technique in general: ATP-based viability assays read luminescence as a measure of living cells.

The target in assay [2] is recombinant Mcl-1 (residues 172-327) (Homo sapiens (Human), UniProt Q07820). Briefly: Bak peptide binding assay, fluorescence polarization anisotropy competition (FITC-Bak), Mcl-1.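 Note: displacement of labeled Bak peptide read by fluorescence anisotropy, 10-point threefold dilutions from 20 µM top dose in 5% DMSO, 90 min incubation at room temperature.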 The conditions noted are these: FITC-Bak peptide 10 nM, Mcl-1 14 nM. A general note: Polarisation of emitted light reports the rotation of a fluorescent probe.
Description: Compound affinity was measured using a fluorescence polarization anisotropy competition assay. Anisotropy measurements were carried out in 384-well, black, flat-bottom plates (Greiner Bio-one, Monroe, N.C., USA). […] 10 nM FITC-Bak peptide and 14 nM recombinant Mcl-1 (residues 172-327) were added to assay buffer (3 mM dithiothreitol, 50 mM NaCl, 20 mM Tris, pH 7.5).
Assay [3] deals with K562. Kind of assay: Cellular viability assay, CellTiter-Glo, K562. The conditions noted are these: Homo sapiens, Table 6 viability assay (method: reduced serum, 1% FBS). The class given is cell-based. On the procedure:
as §1, §2

Assay [4] deals with NCI-H23. Kind of assay: Cellular proliferation, CellTiter-Glo, NCI-H23. The class given is cell-based. The conditions noted are these: Homo sapiens, 10% FBS, 72 hours. On the procedure: as §1, §2
Assay [5] has as its system MV-4-11. Kind of assay: Cellular proliferation, CellTiter-Glo, MV-4-11. Type of assay: cell-based. The conditions noted are these: Homo sapiens, MV4-11, 10% FBS, 72 hours, read-out: EC50 on cellular proliferation, NV-4-11. On the procedure: as §1, §2
In assay [6] the test system is K562. Briefly: Cellular proliferation, CellTiter-Glo, K562. The class given is cell-based. The conditions noted are these: Homo sapiens, 10% FBS, 72 hours. Here is the method: as §1, §2
Assay [7] deals with MV-4-11. Kind of assay: Cellular viability assay, CellTiter-Glo, MV-4-11. The conditions noted are these: Homo sapiens, MV4-11, Table 6 viability assay (method: reduced serum, 1% FBS), read-out: EC50 on cellular viability, NV-4-11. Type of assay: cell-based. Here is the method:
as §1, §2

Assay [8] has as its target Bcl-2 (residues 1-207 A96T,G110R, Δ35-91, replaced with Bcl-xL35-50) (Homo sapiens (Human), UniProt P10415, DEL35-91/INS34DVEENRTEAPEGTESE). Kind of assay: Bak peptide binding assay, fluorescence polarization anisotropy competition (FITC-Bak), Bcl-2 selectivity. The conditions noted are these: Table 4; FITC-Bak peptide 10 nM, Bcl-2 40 nM. On the procedure:
(§3) Bak Peptide Binding Assay
(§4) Compound affinity was measured using a fluorescence polarization anisotropy competition assay. Anisotropy measurements were carried out in 384-well, black, flat-bottom plates (Greiner Bio-one, Monroe, N.C., USA). The assay was run using a fluorescein isothiocyanate-labeled BH3 peptide derived from Bak (FITC-AHx-[…]-NH2) that was purchased from GenScript (Piscataway, N.J.) at >95% purity and used without further purification. 10 nM FITC-Bak peptide and 14 nM recombinant Mcl-1 (residues 172-327) were added to assay buffer (3 mM dithiothreitol, 50 mM NaCl, 20 mM Tris, pH 7.5). For selectivity assays, 40 nM Bcl-2 (residues 1-207^A96T,G110R, Δ35-91, replaced with Bcl-xL35-50) or 4 nM Bcl-xL (residues 1-209, loop 45-86 deleted) were incubated with 10 nM FITC-Bak in assay buffer.
(§5) Compounds are diluted in DMSO in a 10-point, 3-fold serial dilution scheme. 2.5 uL compound is added to 47.5 uL of assay buffer containing FITC-Bak and protein, for a final DMSO concentration of 5% and a top concentration of 20 uM. […] The plate was mixed and incubated for 90 minutes at room temperature. Anisotropy is measured at excitation wavelength 480 nm and emission wavelength 535 nm using an EnVision Multi-label plate reader (PerkinElmer, Wellesley, Mass., USA). Fluorescence anisotropy is plotted against compound concentration to generate an IC50 (inhibitor concentration at which 50% of bound peptide is displaced) by fitting the data to a 4-parameter logistic model using XLFit software (Guildford, Surrey, UK). IC50 is converted to a binding dissociation constant (Ki value) according to the formula of Wang Z. FEBS Lett (1996) 3, 245: Ki=[I]50/([L]50/Kd+[P]0/Kd+1) where [I]50 is the concentration of the free inhibitor at 50% inhibition, [L]50 is the concentration of the free labeled ligand at 50% inhibition, [P]0 is the concentration of the free protein at 0% inhibition, Kd represents the dissociation constant of the FITC peptide probe.

Assay [9] has as its target Bcl-xL (residues 1-209, loop 45-86 deleted) (Homo sapiens (Human), UniProt Q07817, DEL45-86). Briefly: Bak peptide binding assay, fluorescence polarization anisotropy competition (FITC-Bak), Bcl-xL selectivity. The conditions noted are these: Table 4; FITC-Bak peptide 10 nM, Bcl-xL 4 nM. On the procedure: as §3, §4, §5
The subject of the next assay is NCI-H929. Briefly: Cellular proliferation, CellTiter-Glo, NCI-H929. The class given is cell-based. The conditions noted are these: Homo sapiens, 10% FBS, 72 hours. Here is the method:
as §1, §2

[10] abbreviates: Table 3, binned ranges, read-out: Ki for inhibition of Mcl-1.

Chain of recombinant Mcl-1 (residues 172-327) (Q07820 172-327): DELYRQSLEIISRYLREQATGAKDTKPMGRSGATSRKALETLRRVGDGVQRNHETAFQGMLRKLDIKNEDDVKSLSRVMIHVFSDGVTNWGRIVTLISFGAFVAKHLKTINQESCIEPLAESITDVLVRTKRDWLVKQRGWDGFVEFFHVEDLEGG
Chain of Bcl-xL (residues 1-209, loop 45-86 deleted) (Q07817 other isoform, or with tags, fused parts or gaps del 45-86): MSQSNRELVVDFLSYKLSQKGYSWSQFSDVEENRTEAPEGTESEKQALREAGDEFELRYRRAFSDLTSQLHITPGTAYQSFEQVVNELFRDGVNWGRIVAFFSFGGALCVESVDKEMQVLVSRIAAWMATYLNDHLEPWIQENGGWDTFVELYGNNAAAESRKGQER
Chain of Bcl-2 (residues 1-207 A96T,G110R, Δ35-91, replaced with Bcl-xL35-50) (P10415 other isoform, or with tags, fused parts or gaps, stated change not applied): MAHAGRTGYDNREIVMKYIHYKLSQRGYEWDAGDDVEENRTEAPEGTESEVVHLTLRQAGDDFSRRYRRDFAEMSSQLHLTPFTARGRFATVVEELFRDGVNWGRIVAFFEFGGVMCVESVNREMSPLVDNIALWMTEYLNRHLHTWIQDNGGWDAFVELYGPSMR

Turning to `Cc1cc(OCCCc2c(C)n(CCC(=O)O)c3c(-c4ccnn4C)cccc23)cc(C)c1Cl` [Example 70, 3-(3-(3-(4-chloro-3,5-dimethylphenoxy)propyl)-2-methyl-7-(1-methyl-1H-pyrazol-5-yl)-1H-indol-1-yl)propanoic acid], the EC50 came to 5.8 µM in the assay with NCI-H23 [1] and 4.1 µM in the assay with K562 [3]. Further, in [2] (setting [10]), the Ki (in general, a measure of affinity in units of concentration, obtained from inhibition or displacement) was no more than 100 nM.
For the compound `Cc1ccncc1-c1cccc2c(CCCOc3cc(C)c(Cl)c(C)c3)c(C)n(CCC(=O)O)c12` [Example 71, 3-(3-(3-(4-chloro-3,5-dimethylphenoxy)propyl)-2-methyl-7-(4-methylpyridin-3-yl)-1H-indol-1-yl)propanoic acid], the EC50 is 9.9 µM in the assay with NCI-H23 [1] and 7 µM with K562 [3]. Also, in assay [2] (setting [10]), the Ki was no more than 100 nM.
Turning to `Cc1cc(OCCCc2c(C)n(CCC(=O)O)c3c(-c4c(C)n[nH]c4C)cccc23)cc(C)c1Cl` [Example 74, 3-(3-(3-(4-chloro-3,5-dimethylphenoxy)propyl)-7-(3,5-dimethyl-1H-pyrazol-4-yl)-2-methyl-1H-indol-1-yl)propanoic acid], the EC50 amounted to 5.4 µM in the assay with NCI-H23 [1]; 19.8 µM with NCI-H23 [4]; 11.5 µM in the assay with MV-4-11 [5]; 2 µM in the assay on K562 [3]; 21.2 µM in the assay with K562 [6]. Also, the Ki in assay [2] (setting [10]) was no more than 100 nM.
For `Cc1cc(OCCCc2c(C)n(CCC(=O)O)c3c(-c4c(C)nn(C)c4C)cccc23)cc(C)c1Cl` [Example 76, 3-(3-(3-(4-chloro-3,5-dimethylphenoxy)propyl)-2-methyl-7-(1,3,5-trimethyl-1H-pyrazol-4-yl)-1H-indol-1-yl)propanoic acid], the Ki in assay [2] (setting [10]) was no more than 100 nM; in assay [2] (Table 4, read-out: Ki Mcl-1) it was 7 nM; in assay [8], 7.1 µM; in assay [9], 7.9 µM. Moreover, the EC50 in the assay with MV-4-11 [5] came out at 16.2 µM; in the assay with MV-4-11 [7] it was 2800 nM; in the assay on K562 [6], 17.1 µM.
As to `Cc1cc(OCCCc2c(C)n(CCC(=O)O)c3c(-c4c(C)nn(C(C)C)c4C)cccc23)cc(C)c1Cl` [Example 78, 3-(3-(3-(4-chloro-3,5-dimethylphenoxy)propyl)-7-(1-isopropyl-3,5-dimethyl-1H-pyrazol-4-yl)-2-methyl-1H-indol-1-yl)propanoic acid], the Ki in assay [2] (setting [10]) was no more than 100 nM. Also, the values for the EC50 in the assay with MV-4-11 [5] and in the assay on K562 [6] were 12.9 µM and 10 µM, respectively.
Take `Cc1cnccc1-c1cccc2c(CCCOc3cc(C)c(Cl)c(C)c3)c(C)n(CCC(=O)NS(C)(=O)=O)c12` [Example 83, 3-(3-(3-(4-chloro-3,5-dimethylphenoxy)propyl)-2-methyl-7-(3-methylpyridin-4-yl)-1H-indol-1-yl)-N-(methylsulfonyl)propanamide]: the inhibitory constant (Ki) in assay [2] (setting [10]) is no more than 100 nM. Further, the EC50 with MV-4-11 [7] stood at 1900 nM.
Consider `Cc1cc(OCCCc2c(C)n(CCC(=O)O)c3c(-c4c(C)nn(C)c4C)c(Cl)ccc23)cc(C)c1Cl` [Example 104, 3-(6-chloro-3-(3-(4-chloro-3,5-dimethylphenoxy)propyl)-2-methyl-7-(1,3,5-trimethyl-1H-pyrazol-4-yl)-1H-indol-1-yl)propanoic acid], for which the Ki in [2] (setting [10]) is no more than 100 nM. The values for the EC50 in the assay on K562 [6] and in the assay on NCI-H929 were 24.8 µM and 20 µM, respectively.
For `Cc1cc(OCCCc2c(C(F)(F)F)n(Cc3ccc(CC(=O)O)cc3)c3c(-c4c(C)nn(C)c4C)cccc23)cc(C)c1Cl` [Example 117, 2-(4-((3-(3-(4-chloro-3,5-dimethylphenoxy)propyl)-2-(trifluoromethyl)-7-(1,3,5-trimethyl-1H-pyrazol-4-yl)-1H-indol-1-yl)methyl)phenyl)acetic acid] the same measures were no more than 100 nM, 14.8 µM and 8.8 µM.
